Laboratory results reported in paper PMC5942779, “Identification of a peptide inhibitor for the histone methyltransferase WHSC1” (PLoS ONE, 2018).
Square brackets hold non-standard residues; d marks the D form. Peptide text beside a SMILES is read from it. Nle = CCCC[C@H](N)C(=O)O

Tests used:
WHSC1 941–1240 = target: T1, WHSC1 941–1240 (Homo sapiens, UniProt O96028); assay: WHSC1 941–1240 radiometric biochemical assay (3H methyl transfer from SAM to biotinylated H4 peptide); settings: for IC50: radiometric, 10 nM enzyme, 1 μM total SAM, 0.5 μM H4 peptide, 30 min pre-incubation, 120 min, 25°C, pH 8.0, three independent replicates
T1 construct: GST-tagged WHSC1 941–1240 (#51026); GST; purchased BPS Bioscience 51026
T1 sequence (O96028 941-1240): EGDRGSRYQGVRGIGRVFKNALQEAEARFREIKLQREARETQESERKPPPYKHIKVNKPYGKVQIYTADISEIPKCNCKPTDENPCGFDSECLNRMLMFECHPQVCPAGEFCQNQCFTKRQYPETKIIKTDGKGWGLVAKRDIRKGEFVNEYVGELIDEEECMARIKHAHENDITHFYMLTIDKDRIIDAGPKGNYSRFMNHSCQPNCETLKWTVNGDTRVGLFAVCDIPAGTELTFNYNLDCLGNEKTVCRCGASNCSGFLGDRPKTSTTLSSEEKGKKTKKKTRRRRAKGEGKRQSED
Description: (§1) An optimized 1× assay buffer containing 20 mM Tris-HCl (pH 8.0), 1 mM DTT, 0.005% Tween-20, and 0.01% bovine skin gelatin was utilized. […] The reaction was quenched after 120 minutes by adding excess (1 mM final concentration) unlabeled SAM. Quenched reactions were transferred onto streptavidin coated Flashplates (PerkinElmer), incubated for 2 hours, washed 1x with 0.1% Tween 20, and read on a Topcount instrument (PerkinElmer).
(§2) The reaction was initiated by adding 10 μL substrate mix containing peptide and SAM. Concentration–response curves in units of percent inhibition were plotted as a function of inhibitor concentration and fitted in GraphPad Prism to determine the IC50 values using a four-parameter logistic equation.

WHSC1L1 1054–1285 = target: T2, WHSC1L1 1054–1285 (Homo sapiens, UniProt Q9BZ95); assay: WHSC1L1 1054–1285 radiometric biochemical assay; settings: 40 nM enzyme, 6 μM total SAM, 0.8 μM peptide, 30 min pre-incubation, three independent replicates
T2 construct: A WHSC1L1 construct containing amino acids 1054–1285; His-TEV (N, cleaved yes); made in house; host or cells: E. coli
T2 sequence (Q9BZ95 1054-1285): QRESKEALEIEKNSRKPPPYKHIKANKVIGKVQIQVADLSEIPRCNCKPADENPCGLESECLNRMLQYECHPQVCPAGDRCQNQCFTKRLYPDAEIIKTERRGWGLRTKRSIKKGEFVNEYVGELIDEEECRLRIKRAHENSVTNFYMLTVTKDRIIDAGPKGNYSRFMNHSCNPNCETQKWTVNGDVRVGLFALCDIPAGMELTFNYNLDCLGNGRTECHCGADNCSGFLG
Description: as §1, §2

[1] = target: T3, Avi-tagged WHSC1 941–1240 (Homo sapiens, UniProt O96028); assay: SPR binding assay, Avi-tagged WHSC1 941–1240
T3 construct: purchased BPS Bioscience 111207
T3 sequence (O96028 941-1240 limits assumed): T1 sequence (O96028 941-1240)
Description: The SPR binding assay for Avi-tagged WHSC1 941–1240 was performed at 15°C using the Biacore T200 system (GE Healthcare, Marlborough, MA). The running buffer contained 25 mM Tris-HCl pH 8.0, 150 mM NaCl, 5 mM DTT, 0.05% Tween-20, 10 μM ZnCl2, 50 μM SAM, and 2% DMSO. Biotinylated WHSC1 was immobilized on a streptavidin-coated SA chip up to 3700 RU (response units). The reference cell was blocked with PEG-biotin. Peptide inhibitor was injected at a flow rate of 50 μL/min with a 3-fold, 5-point dilution series ending at a 20 μM top concentration. Association and dissociation times were 240 and 2400 seconds, respectively. Double-referenced data were analyzed globally using a 1:1 binding model in BIAevaluation software.
WHSC1 was immobilized on a streptavidin-coated chip and peptide inhibitor was co-injected with SAM utilizing a 3-fold, 5-point dilution series ending at a 20 μM top concentration.
WHSC1 was immobilized on a streptavidin-coated chip and peptide inhibitor was either injected in the absence of cofactor (left panel), co-injected with SAH (middle panel), or co-injected with SFG (right panel) utilizing a 2-fold, 10-point dilution series ending at a 100 μM top concentration.

G9a = target: T4, G9a (Homo sapiens, UniProt Q96KQ7); assay: HMT panel biochemical assay, G9a; settings: HMT selectivity panel
T4 sequence (Q96KQ7 1-1210): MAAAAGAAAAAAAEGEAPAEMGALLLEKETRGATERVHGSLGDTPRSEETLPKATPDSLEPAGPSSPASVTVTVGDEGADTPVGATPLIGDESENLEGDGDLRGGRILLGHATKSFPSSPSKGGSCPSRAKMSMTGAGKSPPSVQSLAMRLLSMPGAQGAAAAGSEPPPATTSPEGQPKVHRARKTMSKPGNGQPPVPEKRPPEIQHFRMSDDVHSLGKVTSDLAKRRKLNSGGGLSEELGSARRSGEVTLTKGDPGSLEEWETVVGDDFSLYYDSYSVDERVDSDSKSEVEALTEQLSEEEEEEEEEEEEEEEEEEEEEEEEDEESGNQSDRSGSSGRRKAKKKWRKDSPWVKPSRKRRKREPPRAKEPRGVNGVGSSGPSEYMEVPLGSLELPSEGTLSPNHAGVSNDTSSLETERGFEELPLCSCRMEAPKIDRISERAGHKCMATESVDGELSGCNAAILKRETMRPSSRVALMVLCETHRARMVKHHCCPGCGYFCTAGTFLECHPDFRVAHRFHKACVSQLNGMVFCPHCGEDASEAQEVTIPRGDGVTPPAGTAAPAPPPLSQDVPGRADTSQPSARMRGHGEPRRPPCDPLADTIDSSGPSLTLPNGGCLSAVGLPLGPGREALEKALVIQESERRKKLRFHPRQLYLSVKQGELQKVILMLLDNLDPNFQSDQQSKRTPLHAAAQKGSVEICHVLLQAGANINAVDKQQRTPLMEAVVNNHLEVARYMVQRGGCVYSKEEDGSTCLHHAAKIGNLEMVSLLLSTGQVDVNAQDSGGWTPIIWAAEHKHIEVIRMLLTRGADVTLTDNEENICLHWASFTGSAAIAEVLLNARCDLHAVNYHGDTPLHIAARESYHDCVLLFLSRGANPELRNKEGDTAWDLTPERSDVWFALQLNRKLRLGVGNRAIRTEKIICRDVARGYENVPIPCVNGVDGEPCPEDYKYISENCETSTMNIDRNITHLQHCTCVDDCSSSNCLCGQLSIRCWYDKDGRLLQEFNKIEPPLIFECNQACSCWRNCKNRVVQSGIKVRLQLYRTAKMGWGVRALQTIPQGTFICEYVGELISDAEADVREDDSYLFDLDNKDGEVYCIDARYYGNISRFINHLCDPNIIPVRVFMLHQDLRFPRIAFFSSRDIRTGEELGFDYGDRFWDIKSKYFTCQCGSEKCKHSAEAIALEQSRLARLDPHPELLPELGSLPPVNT

SETDB1 = SETDB1 (Homo sapiens, UniProt Q15047); assay: HMT panel biochemical assay, SETDB1; settings: HMT selectivity panel
EZH2 = EZH2 (Homo sapiens, UniProt Q15910); assay: HMT panel biochemical assay, EZH2; settings: HMT selectivity panel
PRMT6 = PRMT6 (Homo sapiens, UniProt Q96LA8); assay: HMT panel biochemical assay, PRMT6; settings: HMT selectivity panel
EZH1 = EZH1 (Homo sapiens, UniProt Q92800); assay: HMT panel biochemical assay, EZH1; settings: HMT selectivity panel
SMYD2 = SMYD2 (Homo sapiens, UniProt Q9NRG4); assay: HMT panel biochemical assay, SMYD2; settings: HMT selectivity panel
[2] = ratio of WHSC1 941–1240 biochemical IC50 values

PRMT6, sequence (Q96LA8 whole entry, species assumed): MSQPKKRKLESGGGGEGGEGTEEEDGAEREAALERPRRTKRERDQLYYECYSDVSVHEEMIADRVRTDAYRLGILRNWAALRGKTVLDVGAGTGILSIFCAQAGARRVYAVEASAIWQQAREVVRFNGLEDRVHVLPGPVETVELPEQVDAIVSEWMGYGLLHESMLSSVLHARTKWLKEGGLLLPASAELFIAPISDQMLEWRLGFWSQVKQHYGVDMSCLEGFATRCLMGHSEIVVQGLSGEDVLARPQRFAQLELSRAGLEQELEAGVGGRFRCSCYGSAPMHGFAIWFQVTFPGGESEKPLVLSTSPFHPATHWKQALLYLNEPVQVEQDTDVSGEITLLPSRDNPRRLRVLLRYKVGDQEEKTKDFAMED
EZH2, sequence (Q15910 whole entry, species assumed): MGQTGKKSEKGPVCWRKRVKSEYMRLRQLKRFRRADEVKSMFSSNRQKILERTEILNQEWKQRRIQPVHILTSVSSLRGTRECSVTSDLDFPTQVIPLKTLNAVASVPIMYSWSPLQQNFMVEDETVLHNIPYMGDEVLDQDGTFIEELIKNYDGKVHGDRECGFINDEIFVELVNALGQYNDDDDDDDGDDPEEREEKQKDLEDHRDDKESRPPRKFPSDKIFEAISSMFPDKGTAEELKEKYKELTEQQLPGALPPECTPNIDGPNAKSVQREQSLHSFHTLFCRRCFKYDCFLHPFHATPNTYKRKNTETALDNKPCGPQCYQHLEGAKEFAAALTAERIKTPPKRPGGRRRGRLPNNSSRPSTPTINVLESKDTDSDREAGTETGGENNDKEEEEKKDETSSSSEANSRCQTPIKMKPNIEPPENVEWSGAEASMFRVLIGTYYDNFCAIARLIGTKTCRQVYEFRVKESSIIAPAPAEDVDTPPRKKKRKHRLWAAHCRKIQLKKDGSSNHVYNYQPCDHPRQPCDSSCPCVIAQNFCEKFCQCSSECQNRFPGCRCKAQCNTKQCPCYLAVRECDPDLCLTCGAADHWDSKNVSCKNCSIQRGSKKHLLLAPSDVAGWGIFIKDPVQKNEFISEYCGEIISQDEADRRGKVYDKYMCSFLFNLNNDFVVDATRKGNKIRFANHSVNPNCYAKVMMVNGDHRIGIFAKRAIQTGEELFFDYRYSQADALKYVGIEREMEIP
EZH2, sequence (O75530 whole entry partner, species assumed): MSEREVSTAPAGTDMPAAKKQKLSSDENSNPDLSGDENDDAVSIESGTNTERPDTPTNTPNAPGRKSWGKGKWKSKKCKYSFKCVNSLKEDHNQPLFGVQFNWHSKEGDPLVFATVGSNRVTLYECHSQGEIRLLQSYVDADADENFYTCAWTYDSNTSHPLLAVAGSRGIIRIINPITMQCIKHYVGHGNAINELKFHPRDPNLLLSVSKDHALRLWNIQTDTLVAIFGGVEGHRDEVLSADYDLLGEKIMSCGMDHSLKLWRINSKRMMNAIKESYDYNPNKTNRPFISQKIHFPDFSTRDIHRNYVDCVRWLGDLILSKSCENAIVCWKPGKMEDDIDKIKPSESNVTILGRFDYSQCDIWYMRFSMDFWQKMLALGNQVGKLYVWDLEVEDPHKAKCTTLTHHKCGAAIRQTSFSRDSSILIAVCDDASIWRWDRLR
EZH2, sequence (Q15022 whole entry partner, species assumed): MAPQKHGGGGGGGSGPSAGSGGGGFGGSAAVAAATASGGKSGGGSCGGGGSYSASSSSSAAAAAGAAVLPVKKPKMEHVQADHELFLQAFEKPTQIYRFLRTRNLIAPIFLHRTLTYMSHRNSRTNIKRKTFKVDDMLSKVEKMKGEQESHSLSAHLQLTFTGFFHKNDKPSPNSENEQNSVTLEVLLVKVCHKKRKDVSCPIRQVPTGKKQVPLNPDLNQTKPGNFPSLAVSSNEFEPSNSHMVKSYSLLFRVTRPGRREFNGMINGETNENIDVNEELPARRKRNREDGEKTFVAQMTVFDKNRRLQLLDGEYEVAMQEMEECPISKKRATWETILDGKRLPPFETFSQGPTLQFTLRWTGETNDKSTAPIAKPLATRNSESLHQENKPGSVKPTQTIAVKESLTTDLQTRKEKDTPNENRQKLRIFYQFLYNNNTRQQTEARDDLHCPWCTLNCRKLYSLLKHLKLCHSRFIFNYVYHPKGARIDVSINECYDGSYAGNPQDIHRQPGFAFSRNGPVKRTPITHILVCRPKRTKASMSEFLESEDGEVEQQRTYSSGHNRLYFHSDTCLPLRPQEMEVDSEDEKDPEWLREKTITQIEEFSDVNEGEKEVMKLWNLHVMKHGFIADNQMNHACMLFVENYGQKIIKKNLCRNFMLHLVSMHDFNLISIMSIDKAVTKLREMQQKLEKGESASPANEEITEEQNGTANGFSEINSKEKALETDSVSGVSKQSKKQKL
SMYD2, sequence (Q9NRG4 whole entry, species assumed): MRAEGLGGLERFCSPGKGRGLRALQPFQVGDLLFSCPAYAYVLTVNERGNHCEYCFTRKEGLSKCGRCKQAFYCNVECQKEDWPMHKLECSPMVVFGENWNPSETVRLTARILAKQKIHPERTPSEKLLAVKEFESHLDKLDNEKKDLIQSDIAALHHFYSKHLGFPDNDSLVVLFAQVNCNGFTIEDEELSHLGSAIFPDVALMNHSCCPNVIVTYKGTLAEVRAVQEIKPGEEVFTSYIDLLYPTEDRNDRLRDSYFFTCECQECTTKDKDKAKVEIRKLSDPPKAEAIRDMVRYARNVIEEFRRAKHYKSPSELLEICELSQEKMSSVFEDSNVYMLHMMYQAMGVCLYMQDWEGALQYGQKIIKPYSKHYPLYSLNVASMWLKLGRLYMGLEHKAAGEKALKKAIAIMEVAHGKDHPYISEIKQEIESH
EZH1, sequence (Q92800 whole entry, species assumed): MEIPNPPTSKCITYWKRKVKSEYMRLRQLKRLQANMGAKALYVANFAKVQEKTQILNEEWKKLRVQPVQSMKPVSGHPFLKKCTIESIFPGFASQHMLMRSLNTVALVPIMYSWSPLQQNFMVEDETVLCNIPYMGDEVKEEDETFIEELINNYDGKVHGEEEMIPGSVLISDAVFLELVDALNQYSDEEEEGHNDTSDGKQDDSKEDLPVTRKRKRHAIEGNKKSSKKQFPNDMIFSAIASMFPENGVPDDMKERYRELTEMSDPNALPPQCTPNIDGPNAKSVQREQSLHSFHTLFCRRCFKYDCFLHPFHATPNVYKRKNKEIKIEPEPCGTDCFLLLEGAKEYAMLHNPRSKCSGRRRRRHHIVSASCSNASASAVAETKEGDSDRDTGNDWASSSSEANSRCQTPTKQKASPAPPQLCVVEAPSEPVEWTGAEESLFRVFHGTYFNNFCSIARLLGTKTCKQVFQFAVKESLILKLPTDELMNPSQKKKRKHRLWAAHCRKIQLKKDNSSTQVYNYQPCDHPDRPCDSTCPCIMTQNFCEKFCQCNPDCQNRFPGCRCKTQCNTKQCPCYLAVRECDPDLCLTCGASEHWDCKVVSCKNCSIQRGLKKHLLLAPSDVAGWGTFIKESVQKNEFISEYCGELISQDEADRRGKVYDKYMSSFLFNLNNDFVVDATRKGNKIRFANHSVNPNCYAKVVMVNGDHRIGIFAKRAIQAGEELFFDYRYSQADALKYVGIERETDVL
EZH1, sequence (O75530 whole entry partner, species assumed): as the sequence (O75530 whole entry partner, species assumed) above
EZH1, sequence (Q15022 whole entry partner, species assumed): as the sequence (Q15022 whole entry partner, species assumed) above

Molecule	IC50 (WHSC1 941–1240) [µM]	IC50 (WHSC1L1 1054–1285) [µM]	further results
CCCC[C@H](NC(=O)[C@@H](NC(=O)CNC(=O)CNC(=O)[C@H](CCCNC(=N)N)NC(=O)[C@H](CCCNC(=N)N)NC(=O)[C@H](C)NC(=O)[C@H](CC(C)C)NC(=O)[C@H](CCCNC(=N)N)NC(C)=O)C(C)C)C(=O)N[C@@H](CCCNC(=N)N)C(=O)N[C@H](C(=O)N[C@@H](CO)C(=O)NCC(=O)N[C@@H](CC(C)C)C(=O)N[C@H](C(N)=O)[C@@H](C)CC)[C@@H](C)CC [PTD1] (Ac-RLARRGGV[Nle]RISGLI-NH2)	0.088 ± 0.005	1.1 ± 0.1	fold more potent towards WHSC1 than the 5 residue Nle peptide (PTD2) (WHSC1 941–1240; [2]): 250 fold; SPR behaviour on the sensor surface ([1]; at concentrations greater than 1 μM, affinity to WHSC1 could not be determined): non-specific matrix interactions
CCCC[C@H](NC(=O)[C@@H](NC(=O)CNC(C)=O)C(C)C)C(=O)N[C@@H](CCCNC(=N)N)C(=O)N[C@H](C(N)=O)[C@@H](C)CC [PTD2]			IC50 (G9a): > 200 µM; IC50 (SETDB1): > 200 µM; IC50 (EZH2): > 200 µM; IC50 (PRMT6): > 200 µM; IC50 (EZH1): > 200 µM; IC50 (SMYD2): > 200 µM; SPR binding in the absence of cofactor ([1]; no cofactor, 2-fold, 10-point dilution, top concentration 100 μM): no binding is observed
CCCC[C@H](NC(=O)[C@@H](NC(=O)CNC(=O)CNC(C)=O)C(C)C)C(=O)N[C@@H](CCCNC(=N)N)C(N)=O [PTD4] (Ac-GGV[Nle]R-NH2)	180 ± 20	320 ± 30	
CCCC[C@H](NC(=O)[C@@H](NC(=O)CNC(=O)CNC(=O)[C@H](CCCNC(=N)N)NC(C)=O)C(C)C)C(N)=O [PTD5] (Ac-RGGV[Nle]-NH2)	190 ± 20	110 ± 10	
CCCC[C@H](NC(=O)[C@@H](NC(C)=O)C(C)C)C(=O)N[C@@H](CCCNC(=N)N)C(=O)N[C@H](C(=O)N[C@@H](CO)C(N)=O)[C@@H](C)CC [PTD6] (Ac-V[Nle]RIS-NH2)	110 ± 20	3 ± 0.3	
CCCC[C@H](NC(C)=O)C(=O)N[C@@H](CCCNC(=N)N)C(=O)N[C@H](C(=O)N[C@@H](CO)C(=O)NCC(N)=O)[C@@H](C)CC [PTD7] (Ac-[Nle]RISG-NH2)	200 ± 40	> 1000	
CCCC[C@H](NC(=O)[C@@H](NC(=O)CNC(=O)CNC(=O)[C@@H](NC(=O)[C@H](C)NC(=O)[C@@H]1CCCN1C(=O)[C@H](C)NC(=O)[C@H](CO)NC(C)=O)[C@@H](C)O)C(C)C)C(=O)N[C@@H](CCCCN)C(=O)N1CCC[C@H]1C(=O)N[C@@H](Cc1c[nH]cn1)C(=O)N[C@@H](CCCNC(=N)N)C(=O)N[C@@H](Cc1ccc(O)cc1)C(=O)N[C@@H](CCCNC(=N)N)C(N)=O [PTD8]	13 ± 1	190 ± 30	fold loss in WHSC1 potency compared with PTD1 (WHSC1 941–1240; [2]): 150 fold
CCCC[C@H](NC(=O)[C@@H](NC(=O)CNC(C)=O)C(C)C)C(=O)N[C@@H](CCCCN)C(=O)N1CCC[C@H]1C(N)=O [PTD9] (Ac-GV[Nle]KP-NH2)	130 ± 20	370 ± 40	fold decrease in WHSC1 potency relative to PTD2 (WHSC1 941–1240; [2]): 6 fold
Ac-GVARI-NH2 [PTD3]	640 ± 70	> 1000	fold decrease in WHSC1 potency relative to PTD2 (WHSC1 941–1240; [2]): 30 fold
